In the oligonucleotide strings, read from the 5' end, every base follows the letter of its sugar. An asterisk marks phosphorothioate; unmarked linkages are phosphodiester. Other units and linkages are bracketed, terminal groups are in braces. A string of capitals states the bases alone. d = 2'-deoxy (DNA); m = 2'-O-methyl
Assays:
[1] = biological target: T1, Recombinant full-length human cGAS (Homo sapiens, UniProt Q8N884); test: cGAS in vitro assay and cGAMP ELISA; format: biochemical; conditions: 2.3 μM ISD70, 40 min; for cGAMP production driven by ISD70 (in words): 0.5 μM oligonucleotide
T1 construct: Recombinant full-length human cGAS (Cayman, #22810); purchased Cayman #22810
Experimental: 0.8 μg of Recombinant full-length human cGAS (Cayman, #22810) was used per single reaction in a 200 μl volume with 80 mM Tris-HCl (pH 7.5), 200 mM NaCl, 20 μM ZnCl2, 20 mM MgCl2, 0.25 mM GTP (Thermofisher #R0441) and 0.25 mM ATP (Thermofisher #R0461), with 20 μg of ISD70 (freshly annealed at 1 μg/l in PBS), and 2 μl C2-Mut1/A151 diluted in TE buffer (to get 0.5, 2 or 10 μM ODN concentration in 200 l). After 40 min at 37° C., 2.5 mM EDTA was added to each tube to stop the enzymatic reaction and the samples were either snap frozen and stored at −80° C. or directly processed for cGAMP ELISA. cGAMP levels were measured with the DetectX Direct 2′,3′-Cyclic GAMP Enzyme Immunoassay Kit (Arbor Assays), according to the manufacturer's protocol. Briefly, 50 μL of in vitro reaction were added per well of the kit microplate with 50 μL Assay buffer, 25 μL conjugate, and 25 μL Antibody per well, prior to a minimum of 2 h incubation. The standards were prepared with serial-dilution in Assay buffer. Quantification of cGAMP levels was performed on a Fluostar OPTIMA (BMG LABTECH) plate-reader at 450 nm.

[2] = biological target: T2, mouse cGAS (Mus musculus, UniProt Q8C6L5); test: ISD45-driven ISRE-luciferase in mouse LL171 cells; format: cell-based; conditions: for inhibition of ISD45-driven ISRE-luciferase (in words): 2′OMe or PS oligos 50-600 nM, ISD45 2.5 μg/ml overnight; for effect on ISD-driven ISRE-luciferase, LNA and MOE ASOs (in words): 200 nM or indicated concentrations, ~30 min, ISD overnight (FIG. 22-24)
T2 construct: endogenous in cells; host or cells: LL171 (mouse L929 cells with ISRE-Luciferase)
Experimental: In such examples, inhibition of cGAS activity can be identified by observation of an overall decreased cGAS response of the cell population, or a lower proportion of cells having cGAS-positive activity as compared to positive control condition in which cells are treated with cGAS agonist in the absence of the oligonucleotide (or in the presence of an appropriate control inhibitory agent). In one example, THP-1 or HT-29 cells are transfected with ISD70 and incubated with an oligonucleotide. cGAS activity can then be determined by cytokine (e.g., IP-10 and/or IFNβ) expression (e.g., gene and/or protein expression) and/or secretion levels, such as by ELISA. A similar assay can be performed with LL171 cells transfected with ISD45. […] By way of example, cGAS enzymatic activity may be assessed in vitro using recombinant cGAS and then measuring activity thereof by way of a cGAMP ELISA.
For cGAS stimulations, cells were treated for indicated duration with ASOs, prior to transfection with ISD70 (human cells) or ISD45 (mouse cells) (the ASOs were not washed off prior to ISD transfection unless otherwise indicated). The cGAS ligands ISD45 (Stetson and Medzhitov, 2006) and ISD70 (also known as VACV-70 (Unterholzner et al., 2010)) (Table 1) were resuspended as follows: 5 1d of sense and 5 μl of antisense strands at 10 μg/μl were added to 90 μl PBS under sterile conditions, heated at 75° C. for 30 min, prior to letting cool down at room temperature and aliquoting (stock at 1 μg/1 l). The ISDs were transfected at a concentration of […] at a ratio of 1 μg:1 μl with Lipofectamine 2000 in Opti-MEM (Thermo Fisher Scientific). HEK-TLR3, HEK-TLR7 and […] were treated with indicated concentration of ASOs for 20-50 min, prior to stimulation with poly(I:C) (Invivogen), R848 (Invivogen), Motolimod (MedChemExpress) and the Class B CpG oligonucleotides ODN 2006 (synthesised by IDT and resuspended in RNase-free TE buffer [Table 1]), respectively. The TLR2/1 agonist PAM3CSK4 (Invivogen), the TLR4 agonist lipopolysaccharide (Invivogen), the Class B CpG oligonucleotides ODN 1826 (synthesised by IDT and resuspended in RNase-free TE buffer), the mouse Sting agonist DMXAA (Cayman) and the human STING agonist (compound #3 from (Raanjulu et al., 2018), referred to as GSK herein—kind gift from Cancer Therapeutics CRC, Australia) were used at indicated concentrations. Aspirin (Sigma—A2093) was resuspended in pure medium to 10 mM, filter sterilised and added to the cells at 2 mM final. All ASOs were synthesised by Integrated DNA Technologies (IDT), and resuspended in RNase-free TE buffer, pH 8.0 (Thermo Fisher Scientific). Cell viability was assessed by adding 1× fresh resazurin solution to the wells (10λ solution made up with 7 mg resazurin [Sigma—R7017] dissolved in 3.5 ml PBS, sterile filtered at […]) for 4 h, prior to reading at with a Fluostar OPTIMA (BMG LABTECH) plate-reader (fluorescence: Excitation 535 nm, Emission 590); wells with medium only and 1× resazurin were used as blanks.
Following transfection, the cells were collected from the 6-wells and aliquoted into 96-wells, just before ASO and overnight TLR stimulation (as above described).

[3] = biological target: cGAS (Mus musculus, UniProt Q8C6L5); test: IFN-driven gene expression in Trex1-mutant primary BMDMs, RT-qPCR; conditions: 50 nM ASO transfected 20 h
cGAS, sequence (Q8C6L5 whole entry): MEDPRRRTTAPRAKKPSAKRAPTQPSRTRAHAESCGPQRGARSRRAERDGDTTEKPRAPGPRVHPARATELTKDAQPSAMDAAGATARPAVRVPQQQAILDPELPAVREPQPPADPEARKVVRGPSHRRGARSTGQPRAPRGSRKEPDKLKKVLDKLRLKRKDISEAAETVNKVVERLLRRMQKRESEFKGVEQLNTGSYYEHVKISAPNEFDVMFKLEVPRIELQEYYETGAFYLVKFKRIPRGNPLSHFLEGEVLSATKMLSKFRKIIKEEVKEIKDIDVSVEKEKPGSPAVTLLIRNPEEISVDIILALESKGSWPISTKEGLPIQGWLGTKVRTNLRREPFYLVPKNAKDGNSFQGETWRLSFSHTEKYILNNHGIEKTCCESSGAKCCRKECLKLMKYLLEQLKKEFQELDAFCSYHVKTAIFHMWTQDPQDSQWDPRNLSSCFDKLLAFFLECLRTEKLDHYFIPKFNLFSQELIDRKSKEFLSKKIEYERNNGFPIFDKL

T2 sequence (Q8C6L5 whole entry): as above
T1 sequence (Q8N884 whole entry): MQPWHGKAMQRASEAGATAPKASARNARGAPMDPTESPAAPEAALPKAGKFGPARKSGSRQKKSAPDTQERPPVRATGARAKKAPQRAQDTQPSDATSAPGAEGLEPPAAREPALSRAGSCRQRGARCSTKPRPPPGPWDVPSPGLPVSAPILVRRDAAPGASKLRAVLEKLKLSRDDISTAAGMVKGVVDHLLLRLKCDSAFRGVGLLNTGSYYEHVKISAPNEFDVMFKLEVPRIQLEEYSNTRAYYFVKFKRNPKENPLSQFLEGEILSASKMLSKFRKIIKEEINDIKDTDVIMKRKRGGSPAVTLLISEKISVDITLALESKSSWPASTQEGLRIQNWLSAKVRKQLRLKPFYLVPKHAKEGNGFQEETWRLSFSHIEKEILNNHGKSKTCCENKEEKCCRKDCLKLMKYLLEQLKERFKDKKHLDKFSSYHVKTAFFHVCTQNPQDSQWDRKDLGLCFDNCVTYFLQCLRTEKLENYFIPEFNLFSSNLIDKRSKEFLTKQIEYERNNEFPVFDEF

| Substance | cGAMP production driven by ISD70 (in words) [1] | inhibition of ISD45-driven ISRE-luciferase (in words) [2] | basal expression of ISGs (Rsad2, Ifit1) in Trex1-mutant BMDMs (in words) [3] | effect on ISD-driven ISRE-luciferase, LNA and MOE ASOs (in words) [2] | other results |
| --- | --- | --- | --- | --- | --- |
| mG*mC*mG*mG*mU*A*T*C*C*A*T*G*T*C*C*mC*mA*mG*mG*mC (mG*mC*mG*mG*mU*dA*dT*dC*dC*dA*dT*dG*dT*dC*dC*mC*mA*mG*mG*mC; antisense) [C2-Mut1] | similarly reduced cGAMP production | significantly more inhibitory | significantly decreased the basal expression of two ISGs |  | inhibitory activity on cGAMP production relative to A151 ([1]; 2 μM oligonucleotide): about 2 fold |
| mC*mG*mU*T*T*C*C*C*C*C*C*C*C*C*C*C*C*C*C*C (CGUTTCCCCCCCCCCCCCCC; antisense; sugars from the 5' end m3 d17, all phosphorothioate, methylation of C not given here) [[C2]Mut1-v3-dC] |  | lacked significant inhibitory activity |  |  |  |
| T*T*A* G*G*G* T*T*A* G*G*G* T*T*A* G*G*G* T*T*A* G*G*G [A151, reference compound] | similarly reduced cGAMP production |  | failed to inhibit these ISGs |  |  |
| GTGTCTGGAAGCTTCC (antisense; LNA-modified, pattern not given here) [CTNN2B-809 LNA V1] |  |  |  | strongly potentiating the ISRE-Luciferase signal |  |
| GCAGGCTCAGTGATGT (antisense; LNA-modified, pattern not given here) [CTNN2B-1642 LNA V1] |  |  |  | increased potentiation of ISD sensing |  |
| mG*mG*mU*A*T*C*C*C*C*C*C*C*C*C*C*C*C*C*C*C (GGUATCCCCCCCCCCCCCCC; antisense; sugars from the 5' end m3 d17, all phosphorothioate, methylation of C not given here) [[C2]Mut1-dC] |  | significantly more inhibitory than its precursor dC20 |  |  |  |

— patent US20240384268A1, “Oligonucleotides” (Hudson Institute of Medical Research, priority 2021, published 2024)
